Measurements published in US4344939A, “Penicillin 1,1-dioxides, compositions thereof and methods of use” (Bayer Aktiengesellschaft, priority 1979, dated 1982).

What was measured:
Assay type in all cases: cell-based
Klebsiella pneum. 1852 = test: MIC, Table 1, Klebsiella pneum. 1852
Text: (§1) The penicillanic acid 1,1-dioxide derivatives according to the invention inactivate, by inhibition or destruction, the bacterial enzymes which split the β-lactam ring (β-lactamases). The degradation of other penicillins, for example of amoxicillin, mezlocillin, ampicillin, azlocillin, penicillin G, carbenicillin and ticarcillin, is thereby prevented, and on the one hand their activity is thereby retained and on the other hand their spectrum of action is extended to bacteria which produce β-lactamase.

E. coli T 7 = test: MIC, Table 1, E. coli T 7
Text: as §1

[1] = system: Staphylococcus aeureus 1756; test: MIC, Table 1, Staphylococcus aureus 1756
Text: as §1

[2] = system: Staphylococcus aureus 133; test: in vitro turbidity test in Muller-Hinton nutrient broth; conditions: dosage of 1 μg/ml; 1×10^5 to 2×10^5 bacteria per ml; 0.1% glucose; incubated 24 hours
Experimental: […] In each case, the nutrient solution contained 1×10^5 to 2×10^5 bacteria per ml. The small tubes containing this batch were each incubated for 24 hours and the degree of turbidity was then determined. Absence from turbidity indicates action.

Row | Structure (SMILES) | MIC (Klebsiella pneum. 1852) [E/ml] | MIC (E. coli T 7) [E/ml] | MIC [1] [E/ml] | degree of turbidity (absence from turbidity indicates action) [2]
1 | CC1(C)S[C@@H]2[C@H](NC(=O)[C@H](NC(=O)N3CCN(S(C)(=O)=O)C3=O)c3ccccc3)C(=O)N2[C@H]1C(=O)O [mezlocillin] | 128 | > 256 | 256 | –
2 | CCOC(OCC)(OCC)C(=O)N[C@@H]1C(=O)N2[C@@H](C(=O)O)C(C)(C)S(=O)(=O)[C@H]12 [Example 1] | > 256 | – | > 256 | free from turbidity
